Literature values as cited in patent publication US20210378997A1, “INHIBITOR OF RENAL FIBROSIS IN DIABETIC NEPHROPATHY” (KYOTO PREFECTURAL PUBLIC UNIVERSITY CORPORATION, priority 2018, published 2021).

Conditions: patients with diabetic nephropathy, 1-year medication

Compound: Cc1ccc(=O)n(-c2ccccc2)c1 [pirfenidone]
- renal function (eGFR): significantly improved
